The target in experiment [1] is T1, human GABABR1aR2a (Homo sapiens, UniProt O75899+Q9UBS5).
T1 construct: expressed in transfected cells
The experiment can be described thus: GABA shift assay (GABA concentration-response with and without 10 μM enhancer, FLIPR Ca2+ mobilization in CHO-GABABR1aR2a-Gα16 cell). Format: cell-based. The conditions noted are these: GABA 0.0003-30 μM, log ratio. On the procedure: (§1) Intracellular Ca^2+ Mobilization Assay
(§2) The Chinese Hamster Ovary (CHO) cells stably expressing human GABABR1aR2a and Gα16 were seeded at 5×10^4 cells/well in the poly-D-lysine treated, 96-well, black/clear-bottomed plates (BD Biosciences, Palo Alto, Calif.). […] Probenecid (250 mM) (catalog No. P8761) was from Sigma, Buchs, Switzerland. […] The enhancers were applied 15 min before the application of the GABA. For GABA shift assay, concentration-response curves of GABA (0.0003-30 μM) were determined in the absence and presence of 10 μM enhancer. […] Responses were measured as peak increase in fluorescence minus basal, normalized to the maximal stimulatory effect induced by 10 μM GABA alone (considered 100%) and 10 nM GABA alone (considered 0%).

Experiment [2] has as its target T1, human GABABR1aR2a. The experiment can be described thus: Intracellular Ca2+ mobilization assay in CHO-GABABR1aR2a-Gα16 cell (enhancer concentration-response at 10 nM GABA). Conditions: for EC50: enhancer potency in presence of 10 nM GABA (EC10), CHO cells expressing human GABABR1aR2a and Gα16; for Emax: maximum enhancing effect in presence of 10 nM GABA (EC10), normalized to 10 μM GABA alone = 100%, 10 nM GABA alone = 0%, enhancer 0.001-30 μM applied 15 min before GABA. Format: cell-based. The protocol:
as §1, §2

SMILES strings stand for the structures.

T1 sequence (Q9UBS5 15-961 limits assumed): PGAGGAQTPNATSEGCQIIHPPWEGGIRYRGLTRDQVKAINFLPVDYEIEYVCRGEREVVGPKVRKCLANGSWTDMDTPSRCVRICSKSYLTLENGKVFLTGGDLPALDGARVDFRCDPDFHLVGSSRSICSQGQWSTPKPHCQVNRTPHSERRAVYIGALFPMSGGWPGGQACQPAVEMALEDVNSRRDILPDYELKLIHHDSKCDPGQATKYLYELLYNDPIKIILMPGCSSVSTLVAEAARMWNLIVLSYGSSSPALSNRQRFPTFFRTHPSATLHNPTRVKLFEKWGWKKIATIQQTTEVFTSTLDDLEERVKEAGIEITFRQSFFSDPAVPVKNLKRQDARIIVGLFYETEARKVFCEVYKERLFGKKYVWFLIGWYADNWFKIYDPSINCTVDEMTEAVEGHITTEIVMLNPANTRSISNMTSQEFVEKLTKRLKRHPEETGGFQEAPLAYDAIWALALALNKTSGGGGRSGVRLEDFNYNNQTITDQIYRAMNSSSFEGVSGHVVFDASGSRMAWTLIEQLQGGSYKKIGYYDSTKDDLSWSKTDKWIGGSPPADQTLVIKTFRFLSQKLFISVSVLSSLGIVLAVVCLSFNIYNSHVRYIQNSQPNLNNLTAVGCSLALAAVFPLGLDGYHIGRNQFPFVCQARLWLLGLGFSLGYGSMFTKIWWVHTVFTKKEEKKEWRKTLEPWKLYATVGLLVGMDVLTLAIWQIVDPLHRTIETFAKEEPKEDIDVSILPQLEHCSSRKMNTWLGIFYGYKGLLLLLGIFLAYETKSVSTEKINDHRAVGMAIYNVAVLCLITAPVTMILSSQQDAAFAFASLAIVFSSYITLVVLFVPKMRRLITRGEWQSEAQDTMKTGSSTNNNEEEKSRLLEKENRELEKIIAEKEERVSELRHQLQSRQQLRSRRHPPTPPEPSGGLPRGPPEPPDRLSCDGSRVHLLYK
T1 sequence (O75899 42-941): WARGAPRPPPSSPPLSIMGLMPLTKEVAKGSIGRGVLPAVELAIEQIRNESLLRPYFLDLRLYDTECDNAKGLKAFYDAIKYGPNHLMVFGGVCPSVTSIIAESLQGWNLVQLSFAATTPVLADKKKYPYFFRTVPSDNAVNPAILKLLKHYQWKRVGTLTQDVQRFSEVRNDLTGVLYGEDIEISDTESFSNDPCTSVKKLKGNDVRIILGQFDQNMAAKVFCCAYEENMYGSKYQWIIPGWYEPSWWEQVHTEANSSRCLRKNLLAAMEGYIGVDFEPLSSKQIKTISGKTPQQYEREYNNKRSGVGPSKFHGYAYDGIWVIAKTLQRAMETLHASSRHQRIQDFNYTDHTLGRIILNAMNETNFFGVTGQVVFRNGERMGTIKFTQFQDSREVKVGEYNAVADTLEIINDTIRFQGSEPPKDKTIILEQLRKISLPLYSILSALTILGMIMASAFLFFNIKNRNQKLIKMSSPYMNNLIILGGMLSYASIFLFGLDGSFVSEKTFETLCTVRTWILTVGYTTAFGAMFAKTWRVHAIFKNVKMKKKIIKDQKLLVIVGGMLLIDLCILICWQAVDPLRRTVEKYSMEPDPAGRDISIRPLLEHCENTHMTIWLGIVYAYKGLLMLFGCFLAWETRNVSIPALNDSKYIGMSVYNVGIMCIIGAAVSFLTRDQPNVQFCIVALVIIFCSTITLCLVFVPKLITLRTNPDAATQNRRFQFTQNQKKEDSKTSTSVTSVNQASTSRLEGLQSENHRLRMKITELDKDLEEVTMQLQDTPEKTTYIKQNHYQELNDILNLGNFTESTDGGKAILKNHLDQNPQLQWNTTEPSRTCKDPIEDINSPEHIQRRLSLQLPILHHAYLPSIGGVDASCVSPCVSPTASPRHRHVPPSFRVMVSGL

One may read the EC50 as the concentration giving half of the maximal effect. What is called Emax is the greatest response seen or fitted, relative to the assay's reference. As to `COC(=O)C(O)(c1cc(C(C)(C)C)cc(C(C)(C)C)c1)C(F)(F)F` (racemic) [Example 7, (R,S)-2-(3,5-Di-tert-butyl-phenyl)-3,3,3-trifluoro-2-hydroxy-propionic acid methyl ester], the “GABA shift Log [EC50 (GABA + 10 μM cp)/EC50 (GABA alone)]” value at human GABABR1aR2a [1] is recorded as −0.9. Also, on human GABABR1aR2a [2], the EC50 was found to be 2.1 µM and the maximal effect (Emax) worked out at 66%.
The corresponding values for `CC(C)(C)c1cc(C(C)(C)C)c(O)c(C(O)(C(=O)O)C(F)(F)F)c1` (racemic) [Example 3, (R,S)-2-(3,5-Di-tert-butyl-2-hydroxy-phenyl)-3,3,3-trifluoro-2-hydroxy-propionic acid] are −1, 0.32 µM and 70%.
Consider `Cc1cc(C(C)(C)C)c2c(c1)C(O)(C(F)(F)F)C(=O)O2` (racemic) [Example 9, (R,S)-7-tert-Butyl-3-hydroxy-5-methyl-3-trifluoromethyl-3H-benzofuran-2-one], for which, on human GABABR1aR2a [1], the “GABA shift Log [EC50 (GABA + 10 μM cp)/EC50 (GABA alone)]” value is given as −1.3. On human GABABR1aR2a [2], the EC50 was found to be 0.36 µM and the Emax stood at 62%.
